In ChEMBL document CHEMBL5465560, “Selectivity Literature for EUbOPEN Chemogenomic Library” (2024):

Assays:
[1] = molecular target: Tyrosine-protein kinase Blk (Homo sapiens) (UniProt P51451); test: Selectivity interaction (Kinase panel (Z-LYTE Assay)) EUB0001632a BLK; conditions: at 10 µM
[2] = molecular target: Ephrin type-A receptor 7 (Homo sapiens) (UniProt Q15375); test: Selectivity interaction (LanthaScreen Eu Kinase Binding Assay) EUB0001632a EPHA7; conditions: at 10 µM
[3] = molecular target: SWI/SNF-related matrix-associated actin-dependent regulator of chromatin subfamily A member 4 (Homo sapiens) (UniProt P51532); test: Selectivity interaction (Human bromodomain panel (DSF assay)) EUB0000233b SMARCA4
Chain of SWI/SNF-related matrix-associated actin-dependent regulator of chromatin subfamily A member 4 (Homo sapiens) (P51532 whole entry): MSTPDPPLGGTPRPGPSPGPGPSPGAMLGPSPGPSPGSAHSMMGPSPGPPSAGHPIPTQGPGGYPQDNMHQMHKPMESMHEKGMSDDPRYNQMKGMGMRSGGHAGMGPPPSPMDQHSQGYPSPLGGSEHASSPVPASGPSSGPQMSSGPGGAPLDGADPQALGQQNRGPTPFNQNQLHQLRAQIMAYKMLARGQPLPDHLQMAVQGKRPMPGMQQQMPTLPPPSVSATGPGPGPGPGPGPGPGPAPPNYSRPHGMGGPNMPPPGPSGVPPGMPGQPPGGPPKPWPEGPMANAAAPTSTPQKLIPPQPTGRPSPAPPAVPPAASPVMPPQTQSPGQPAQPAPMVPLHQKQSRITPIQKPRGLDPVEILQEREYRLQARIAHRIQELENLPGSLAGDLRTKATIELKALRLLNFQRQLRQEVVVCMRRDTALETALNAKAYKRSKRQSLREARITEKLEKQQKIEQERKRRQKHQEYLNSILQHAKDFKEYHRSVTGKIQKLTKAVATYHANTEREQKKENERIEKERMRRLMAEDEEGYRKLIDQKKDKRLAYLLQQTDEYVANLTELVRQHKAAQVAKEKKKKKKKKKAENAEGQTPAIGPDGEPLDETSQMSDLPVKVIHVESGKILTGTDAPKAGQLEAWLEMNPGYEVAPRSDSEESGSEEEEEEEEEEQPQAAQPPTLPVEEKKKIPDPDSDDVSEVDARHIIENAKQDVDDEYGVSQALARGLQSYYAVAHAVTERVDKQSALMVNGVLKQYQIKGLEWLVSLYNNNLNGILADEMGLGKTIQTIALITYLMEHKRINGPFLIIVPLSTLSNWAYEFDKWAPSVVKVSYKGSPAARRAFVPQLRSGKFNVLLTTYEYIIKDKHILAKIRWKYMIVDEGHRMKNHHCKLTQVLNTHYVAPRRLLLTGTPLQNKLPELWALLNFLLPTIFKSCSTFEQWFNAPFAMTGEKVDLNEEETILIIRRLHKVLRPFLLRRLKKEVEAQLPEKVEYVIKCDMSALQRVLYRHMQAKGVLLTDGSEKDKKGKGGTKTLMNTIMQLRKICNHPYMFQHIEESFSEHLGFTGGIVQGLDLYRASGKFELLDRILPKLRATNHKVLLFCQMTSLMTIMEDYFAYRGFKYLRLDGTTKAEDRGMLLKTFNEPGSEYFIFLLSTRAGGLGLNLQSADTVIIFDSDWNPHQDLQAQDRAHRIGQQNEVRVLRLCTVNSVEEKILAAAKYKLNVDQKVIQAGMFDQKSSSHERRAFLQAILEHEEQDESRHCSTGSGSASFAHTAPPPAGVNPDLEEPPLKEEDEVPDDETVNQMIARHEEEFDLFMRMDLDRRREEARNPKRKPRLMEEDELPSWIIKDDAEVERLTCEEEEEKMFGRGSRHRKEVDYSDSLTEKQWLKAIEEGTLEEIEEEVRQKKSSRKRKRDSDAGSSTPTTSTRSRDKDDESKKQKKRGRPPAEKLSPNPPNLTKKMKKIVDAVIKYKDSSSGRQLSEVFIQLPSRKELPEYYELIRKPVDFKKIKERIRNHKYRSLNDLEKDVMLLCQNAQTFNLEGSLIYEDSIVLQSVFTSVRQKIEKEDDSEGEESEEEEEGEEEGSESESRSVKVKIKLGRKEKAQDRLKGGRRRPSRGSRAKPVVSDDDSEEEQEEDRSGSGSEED

[4] = molecular target: Calcium/calmodulin-dependent protein kinase kinase 1 (Homo sapiens) (UniProt Q8N5S9); test: Selectivity interaction (KinomeScan (DiscoverX)) EUB0000666a CAMKK1; conditions: at 10 µM
[5] = molecular target: Cyclin-dependent kinase 7 (Homo sapiens, UniProt P50613); test: Selectivity interaction (KinomeScan (DiscoverX)) EUB0000607a CDK7; conditions: at 10 µM
[6] = molecular target: T1, Mitogen-activated protein kinase kinase kinase 2 (Homo sapiens) (UniProt Q9Y2U5); test: Selectivity interaction (ActivX KiNativ screen (kinase selectivity in THP-1 cell lysates)) EUB0000639a MAP3K2; assay type: subcellular; conditions: lysate, at 0.04 µM
T1 sequence (whole entry): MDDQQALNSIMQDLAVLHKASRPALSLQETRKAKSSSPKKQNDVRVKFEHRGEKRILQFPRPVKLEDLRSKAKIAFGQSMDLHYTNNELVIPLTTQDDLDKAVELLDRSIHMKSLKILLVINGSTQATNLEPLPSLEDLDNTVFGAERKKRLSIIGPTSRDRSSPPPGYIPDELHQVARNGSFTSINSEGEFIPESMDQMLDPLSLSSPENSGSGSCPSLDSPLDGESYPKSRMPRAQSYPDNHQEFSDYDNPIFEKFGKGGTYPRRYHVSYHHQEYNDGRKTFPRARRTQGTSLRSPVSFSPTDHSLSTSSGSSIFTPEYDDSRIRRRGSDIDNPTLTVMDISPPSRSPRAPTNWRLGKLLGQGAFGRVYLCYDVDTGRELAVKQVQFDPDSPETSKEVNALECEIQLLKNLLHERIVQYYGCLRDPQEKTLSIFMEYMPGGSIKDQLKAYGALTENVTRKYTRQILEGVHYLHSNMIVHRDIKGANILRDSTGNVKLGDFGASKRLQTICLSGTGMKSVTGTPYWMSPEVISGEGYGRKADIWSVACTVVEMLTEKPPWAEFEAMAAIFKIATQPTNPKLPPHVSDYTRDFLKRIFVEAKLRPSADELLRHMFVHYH

[7] = molecular target: 5'-AMP-activated protein kinase catalytic subunit alpha-2 (Homo sapiens) (UniProt P54646); test: Selectivity interaction (ActivX KiNativ screen (kinase selectivity in THP-1 cell lysates)) EUB0000639a PRKAA2; assay type: subcellular; conditions: lysate, at 1 µM
[8] = test system: Fibroblast growth factor receptor 1 (Homo sapiens), P11362 [V561M]; test: (§1) Selectivity interaction (ProQinase) EUB0000171b FGFR1
Chain of Fibroblast growth factor receptor 1 (Homo sapiens), P11362 [V561M] (P11362 whole entry V561M): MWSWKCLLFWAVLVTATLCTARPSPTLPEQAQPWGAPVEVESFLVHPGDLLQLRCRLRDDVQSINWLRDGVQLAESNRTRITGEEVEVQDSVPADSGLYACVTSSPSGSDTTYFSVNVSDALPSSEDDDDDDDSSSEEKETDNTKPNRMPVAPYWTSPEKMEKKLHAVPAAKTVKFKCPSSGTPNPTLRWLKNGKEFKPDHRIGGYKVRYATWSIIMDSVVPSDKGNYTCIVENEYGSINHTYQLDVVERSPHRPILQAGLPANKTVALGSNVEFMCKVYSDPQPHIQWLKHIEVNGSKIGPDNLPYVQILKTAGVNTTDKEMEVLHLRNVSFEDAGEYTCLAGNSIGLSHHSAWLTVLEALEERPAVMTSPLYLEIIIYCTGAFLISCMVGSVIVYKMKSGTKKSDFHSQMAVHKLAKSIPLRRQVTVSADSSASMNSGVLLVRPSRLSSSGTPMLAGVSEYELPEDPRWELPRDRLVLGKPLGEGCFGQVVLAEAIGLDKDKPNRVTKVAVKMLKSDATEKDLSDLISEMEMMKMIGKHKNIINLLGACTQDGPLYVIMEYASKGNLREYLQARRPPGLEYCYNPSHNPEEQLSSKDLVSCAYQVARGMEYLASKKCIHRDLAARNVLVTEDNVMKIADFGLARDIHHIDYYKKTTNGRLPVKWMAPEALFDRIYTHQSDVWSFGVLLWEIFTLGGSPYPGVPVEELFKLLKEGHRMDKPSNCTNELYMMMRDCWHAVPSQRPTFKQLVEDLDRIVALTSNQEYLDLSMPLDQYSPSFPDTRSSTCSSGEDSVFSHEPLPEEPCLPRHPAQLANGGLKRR

[9] = molecular target: Fibroblast growth factor receptor 1 (Homo sapiens, UniProt P11362); test: as §1
Chain of Fibroblast growth factor receptor 1 (P11362 22-822 limits assumed): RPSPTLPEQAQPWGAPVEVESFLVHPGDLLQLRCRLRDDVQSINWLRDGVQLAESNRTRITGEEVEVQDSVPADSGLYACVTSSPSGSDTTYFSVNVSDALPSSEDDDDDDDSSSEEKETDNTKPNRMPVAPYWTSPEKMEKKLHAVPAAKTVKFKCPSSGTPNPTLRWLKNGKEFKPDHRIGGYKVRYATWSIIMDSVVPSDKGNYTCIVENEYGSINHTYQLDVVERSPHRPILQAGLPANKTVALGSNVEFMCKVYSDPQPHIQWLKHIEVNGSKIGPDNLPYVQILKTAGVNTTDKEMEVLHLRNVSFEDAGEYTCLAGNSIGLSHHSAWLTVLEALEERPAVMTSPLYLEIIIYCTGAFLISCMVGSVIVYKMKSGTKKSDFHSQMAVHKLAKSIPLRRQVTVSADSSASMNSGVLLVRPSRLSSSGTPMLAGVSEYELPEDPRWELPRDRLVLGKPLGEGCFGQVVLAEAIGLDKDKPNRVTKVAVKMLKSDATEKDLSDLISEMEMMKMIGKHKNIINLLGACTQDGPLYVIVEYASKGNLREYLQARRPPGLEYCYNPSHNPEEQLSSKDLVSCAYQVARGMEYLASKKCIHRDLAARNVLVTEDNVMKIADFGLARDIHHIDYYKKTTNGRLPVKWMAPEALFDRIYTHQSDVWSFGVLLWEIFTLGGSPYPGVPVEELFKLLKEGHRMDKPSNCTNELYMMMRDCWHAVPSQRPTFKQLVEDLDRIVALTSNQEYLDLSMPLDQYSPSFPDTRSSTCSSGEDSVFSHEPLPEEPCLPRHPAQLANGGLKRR

[10] = molecular target: T2, Dual specificity mitogen-activated protein kinase kinase 7 (Homo sapiens) (UniProt O14733); test: Selectivity interaction (ProQinase) EUB0000171b MAP2K7
T2 sequence (whole entry): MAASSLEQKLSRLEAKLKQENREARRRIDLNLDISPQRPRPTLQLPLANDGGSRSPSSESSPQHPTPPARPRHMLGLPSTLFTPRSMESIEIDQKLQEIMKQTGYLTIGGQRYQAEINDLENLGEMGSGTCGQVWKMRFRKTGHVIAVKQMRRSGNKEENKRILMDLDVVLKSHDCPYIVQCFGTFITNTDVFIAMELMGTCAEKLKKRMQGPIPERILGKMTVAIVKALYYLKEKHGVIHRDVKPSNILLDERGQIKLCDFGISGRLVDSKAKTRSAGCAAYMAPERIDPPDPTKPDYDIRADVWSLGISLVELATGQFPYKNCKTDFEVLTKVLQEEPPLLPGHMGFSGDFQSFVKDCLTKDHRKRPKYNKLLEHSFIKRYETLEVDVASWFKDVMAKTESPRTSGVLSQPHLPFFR

[11] = molecular target: T3, Mitogen-activated protein kinase 13 (Homo sapiens) (UniProt O15264); test: Selectivity interaction (KinomeScan (DiscoverX)) EUB0000695a MAPK13; conditions: at 100 nM
T3 sequence (whole entry): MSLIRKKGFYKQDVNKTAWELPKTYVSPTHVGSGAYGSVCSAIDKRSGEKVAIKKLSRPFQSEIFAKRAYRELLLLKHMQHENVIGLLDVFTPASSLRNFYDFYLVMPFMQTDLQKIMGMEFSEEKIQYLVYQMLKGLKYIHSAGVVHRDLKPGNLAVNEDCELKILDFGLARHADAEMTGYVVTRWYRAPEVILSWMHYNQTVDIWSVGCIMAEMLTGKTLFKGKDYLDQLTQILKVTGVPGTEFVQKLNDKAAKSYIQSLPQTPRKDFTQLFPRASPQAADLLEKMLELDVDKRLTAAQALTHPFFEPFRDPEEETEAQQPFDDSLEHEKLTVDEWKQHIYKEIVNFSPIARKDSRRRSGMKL

[12] = molecular target: Ephrin type-A receptor 2 (Homo sapiens) (UniProt P29317); test: Selectivity interaction (Millipore kinase profiler) EUB0000124b EPHA2; conditions: at 10 µM
Chain of Ephrin type-A receptor 2 (Homo sapiens) (P29317 whole entry): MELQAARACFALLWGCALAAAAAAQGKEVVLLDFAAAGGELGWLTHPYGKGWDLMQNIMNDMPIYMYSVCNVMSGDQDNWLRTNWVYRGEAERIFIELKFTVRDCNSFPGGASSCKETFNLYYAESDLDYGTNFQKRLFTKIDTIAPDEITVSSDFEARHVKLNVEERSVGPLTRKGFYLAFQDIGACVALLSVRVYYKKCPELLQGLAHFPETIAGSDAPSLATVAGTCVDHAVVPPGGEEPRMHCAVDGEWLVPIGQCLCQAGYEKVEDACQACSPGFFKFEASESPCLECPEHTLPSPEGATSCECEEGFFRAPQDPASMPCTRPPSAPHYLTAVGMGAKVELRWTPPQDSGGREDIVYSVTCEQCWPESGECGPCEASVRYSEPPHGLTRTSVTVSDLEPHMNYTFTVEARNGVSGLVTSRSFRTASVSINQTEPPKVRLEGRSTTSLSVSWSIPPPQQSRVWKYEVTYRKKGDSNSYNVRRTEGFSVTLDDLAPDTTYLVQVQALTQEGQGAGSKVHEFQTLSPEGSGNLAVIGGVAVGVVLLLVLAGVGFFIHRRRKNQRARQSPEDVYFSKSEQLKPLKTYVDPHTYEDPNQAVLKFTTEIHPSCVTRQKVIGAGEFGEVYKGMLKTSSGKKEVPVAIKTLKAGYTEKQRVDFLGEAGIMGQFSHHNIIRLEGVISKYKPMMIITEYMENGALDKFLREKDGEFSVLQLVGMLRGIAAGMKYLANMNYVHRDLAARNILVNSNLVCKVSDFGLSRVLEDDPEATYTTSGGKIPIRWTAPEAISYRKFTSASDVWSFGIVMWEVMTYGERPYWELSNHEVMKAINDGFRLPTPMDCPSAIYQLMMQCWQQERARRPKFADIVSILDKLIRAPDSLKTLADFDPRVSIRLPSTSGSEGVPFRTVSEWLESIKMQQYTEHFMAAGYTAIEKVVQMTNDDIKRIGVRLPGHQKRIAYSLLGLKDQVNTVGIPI

[13] = molecular target: BDNF/NT-3 growth factors receptor (Homo sapiens) (UniProt Q16620); test: Selectivity interaction (Ambit KINOMEscan and KiNATiv profiling in Jurkat cells) EUB0000090b NTRK2; assay type: cell-based; conditions: at 1 µM
Chain of BDNF/NT-3 growth factors receptor (Homo sapiens) (Q16620 32-822 limits assumed): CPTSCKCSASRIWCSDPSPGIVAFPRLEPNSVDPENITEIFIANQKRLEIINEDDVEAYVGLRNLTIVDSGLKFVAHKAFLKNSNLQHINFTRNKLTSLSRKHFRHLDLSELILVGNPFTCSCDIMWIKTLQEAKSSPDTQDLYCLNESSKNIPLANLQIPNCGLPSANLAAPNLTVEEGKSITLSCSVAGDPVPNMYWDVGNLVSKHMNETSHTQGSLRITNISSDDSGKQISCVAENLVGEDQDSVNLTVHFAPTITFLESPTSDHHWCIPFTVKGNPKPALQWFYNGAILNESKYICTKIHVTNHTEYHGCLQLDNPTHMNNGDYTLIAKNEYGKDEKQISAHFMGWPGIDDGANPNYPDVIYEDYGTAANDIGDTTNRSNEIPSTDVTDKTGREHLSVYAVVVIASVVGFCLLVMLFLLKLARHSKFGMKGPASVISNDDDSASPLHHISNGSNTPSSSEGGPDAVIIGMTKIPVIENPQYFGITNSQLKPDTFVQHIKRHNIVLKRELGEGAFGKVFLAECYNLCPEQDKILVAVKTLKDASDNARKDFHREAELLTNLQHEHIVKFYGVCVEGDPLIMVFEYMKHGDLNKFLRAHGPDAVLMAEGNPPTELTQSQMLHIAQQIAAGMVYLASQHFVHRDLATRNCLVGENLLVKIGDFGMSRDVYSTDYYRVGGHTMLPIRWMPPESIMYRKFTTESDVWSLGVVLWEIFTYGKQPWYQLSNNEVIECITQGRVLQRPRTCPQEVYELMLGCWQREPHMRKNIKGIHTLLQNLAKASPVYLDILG

Cn1cc(-n2cnc3c(NCc4nc5cc(Cl)c(Cl)cc5[nH]4)nc(N4CCOCC4)nc32)cn1
% of control [1]: 6.49% | % of inhibition [2]: -69.8%

CN(C)CCCOc1ccc(-c2cc(NCCCn3cccn3)nc(S(C)(=O)=O)n2)cc1
dTM [3]: < 2 K

O=C(NOC[C@H](O)CO)c1ccc(F)c(F)c1Nc1ccc(I)cc1F
% of control [4]: 100%

CNC(=O)Nc1ccc(-c2nc(N3CC4CCC(C3)O4)c3cnn(C4CCC5(CC4)OCCO5)c3n2)cc1
% of control [5]: 88%

CC[C@@H]1[C@H](F)C(=O)N[C@@H]1COc1nccc2cc(C(N)=O)c(OC)cc12 [ZIMLOVISERTIB]
% of inhibition [6]: 1.8% | % of inhibition [7]: -4.6%

C=CC(=O)Nc1cccc(C(=O)Nc2ccc(Nc3cc(-c4[nH]c(SC)nc4C)ccn3)cc2)c1
% of control ([8]; at 1 µM): 99% | % of control ([8]; at 5 µM): 65% | % of control ([9]; at 1 µM): 105% | % of control ([9]; at 5 µM): 87% | % of control ([10]; at 1 µM): 45% | % of control ([10]; at 5 µM): 39%

Cc1cc(F)c(C(=O)Nc2cccc(-c3nncn3C(C)C)n2)cc1-n1cnc(C2CC2)c1
% of control [11]: 100%

CC(=O)Nc1cccc(-n2c(=O)n(C3CC3)c(=O)c3c(Nc4ccc(I)cc4F)n(C)c(=O)c(C)c32)c1
% of control [12]: 93%

CN(C)C/C=C/C(=O)Nc1ccc(C(=O)N2CCCC(Nc3ncc(Cl)c(-c4c[nH]c5ccccc45)n3)C2)cc1 (stereo unspecified)
% of control [13]: 76%
